Laboratory results: ChEMBL document CHEMBL4376803, “Recent Advances in the Exploration of Therapeutic Analogues of Gramicidin S, an Old but Still Potent Antimicrobial Peptide” (J Med Chem, 2019)
Converted amounts (≈) assume the structure as drawn. Square brackets hold non-standard residues; d marks the D form. Peptide text beside a SMILES is read from it.

What was measured:
[1] = Therapeutic index, ratio of HD100 for hemolytic activity in human RBC to MIC against Staphylococcus aureus; format: toxicity; conditions: human red blood cells, read-out: TI
[2] = Therapeutic index, ratio of HD100 for hemolytic activity in human erythrocytes to MIC against Escherichia coli; format: toxicity, cell-based; conditions: read-out: TI
[3] = Therapeutic index, ratio of HD100 for hemolytic activity in human erythrocytes to MIC against Pseudomonas aeruginosa; format: toxicity, cell-based; conditions: read-out: TI
Pseudomonas aeruginosa = experiment: Antibacterial activity against Pseudomonas aeruginosa after 24 hrs by microtitre dilution method; format: functional
[4] = Therapeutic index, ratio of HD100 for hemolytic activity in human RBC to MIC against Enterococcus faecalis; format: toxicity; conditions: human red blood cells, read-out: TI
Candida albicans = experiment: Antibacterial activity against Candida albicans after 24 hrs by microtitre dilution method; format: functional
Escherichia coli = experiment: Antibacterial activity against Escherichia coli after 24 hrs by microtitre dilution method; format: functional
Enterococcus faecalis = experiment: Antibacterial activity against Enterococcus faecalis after 24 hrs by microtitre dilution method; format: functional
Staphylococcus aureus = experiment: Antibacterial activity against Staphylococcus aureus after 24 hrs by microtitre dilution method; format: functional

- MIC (Pseudomonas aeruginosa): 64 µg/mL (≈ 33.2 µM)
- MIC (Candida albicans): 16 µg/mL (≈ 8.31 µM)
- MIC (Escherichia coli): 4 µg/mL (≈ 2.08 µM)
- MIC (Enterococcus faecalis): 4 µg/mL (≈ 2.08 µM)
- MIC (Staphylococcus aureus): 8 µg/mL (≈ 4.15 µM)
Structure (SMILES): CC(C)C[C@@H]1NC(=O)[C@H](CCCCN)NC(=O)[C@H](C(C)C)NC(=O)[C@@H]2CCCN2C(=O)[C@@H](Cc2ccc(O)cc2)NC(=O)[C@H](CC(C)C)NC(=O)[C@H](CCCCN)NC(=O)[C@H](C(C)C)NC(=O)[C@H](CCCCN)NC(=O)[C@H](CC(C)C)NC(=O)[C@H](CCCCN)NC(=O)[C@@H]2CCCN2C(=O)[C@@H](Cc2ccc(O)cc2)NC(=O)[C@H](CCCCN)NC(=O)[C@H](C(C)C)NC(=O)[C@H](CCCCN)NC1=O (cyclo(VKLKVK[dY]PKLKVKL[dY]P))
- selectivity ratio [1]: > 25
- selectivity ratio [2]: > 50
- selectivity ratio [3]: > 3.1
- selectivity ratio [4]: > 50
